Reference: PubChem BioAssay (NCI)
Several values for one entry are separate records, joined by “and”; a condition that tells them apart may be missing. Equal values may be shown once.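 A five-concentration, 48-hour dose response in 96-well plates underlies each endpoint, interpolated linearly between surrounding concentrations. GI50 is the concentration that inhibits growth by half. Definition used: TGI = concentration required for complete inhibition of growth.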

Tests used:
Experiment in all cases: DTP human tumour cell line panel, 48 h
COLO 205 colon = system: COLO 205 colon
HOP-62 NSCLC = system: HOP-62 NSCLC
HT29 colon = system: HT29 colon
NCI-H460 lung = system: NCI-H460 lung
SF-268 CNS = system: SF-268 CNS
SF-539 CNS = system: SF-539 CNS
SR leukemia = system: SR leukemia
SK-OV-3 ovarian = system: SK-OV-3 ovarian
MCF7 breast = system: MCF7 breast
PC-3 prostate = system: PC-3 prostate

Row | SMILES | TGI (COLO 205 colon) | TGI (HOP-62 NSCLC) | TGI (HT29 colon) | TGI (NCI-H460 lung) | TGI (SF-268 CNS) | TGI (SF-539 CNS) | TGI (SR leukemia) | TGI (SK-OV-3 ovarian) | TGI (MCF7 breast) | TGI (PC-3 prostate) | GI50 (COLO 205 colon) | GI50 (HOP-62 NSCLC) | GI50 (MCF7 breast) | GI50 (NCI-H460 lung) | GI50 (SF-268 CNS) | GI50 (SF-539 CNS) | GI50 (SK-OV-3 ovarian) | GI50 (HT29 colon) | GI50 (PC-3 prostate) | GI50 (SR leukemia)
1 | COC1(C)C(=O)N2C1N(C(=O)OCc1ccccc1)CC2(C)C (stereo unspecified) | > 100 µM | > 100 µM | > 100 µM | > 100 µM | > 100 µM | > 100 µM | > 100 µM |  |  |  |  |  |  |  |  |  |  |  |  | 
2 | O=C(NCC(=O)N1CCOC1=O)OCc1ccccc1 | > 100 µM | > 100 µM | > 100 µM | > 100 µM | > 100 µM | > 100 µM |  | > 100 µM |  |  |  |  |  |  |  |  |  |  |  | 
3 | NCCC(=O)NC(Cc1cnc[nH]1)C(=O)O (stereo unspecified) | > 100 µM | > 100 µM | > 100 µM | > 100 µM | > 100 µM | > 100 µM |  |  | > 100 µM | > 100 µM |  |  |  |  |  |  |  |  |  | 
4 | COc1cccc2c1[C@H]1CO[C@H]3C4C[C@H](C(=O)O)C([C@@H](C2)N13)N4C (stereo partly specified) | 2.58 µM and 2.41 µM | 9.75 µM and 5.44 µM |  | > 38.2 µM | 7.43 µM and > 32 µM | 2.62 µM and 2.04 µM | 8.55 µM | 7.84 µM and 1.75 µM | 10 µM |  | 0.515 µM | 3.92 µM and 1.72 µM | 0.296 µM | 1.36 µM | 1.13 µM | 0.684 µM | 6.06 µM and 0.803 µM |  |  | 
5 | COC(=O)/C(C#N)=C1\CCc2ccccc21 | > 100 µM |  | > 100 µM | > 100 µM | > 100 µM | > 100 µM |  | > 100 µM |  |  |  |  |  |  |  |  |  |  |  | 
6 | Nc1ccc(C(=O)NN2C(=O)C(Cl)C2c2cccc(O)c2)cc1 (stereo unspecified) | 34.6 µM | 30.7 µM | 35.2 µM | 29.7 µM | 17 µM | 31.6 µM |  | 34.3 µM |  |  |  |  |  |  |  |  |  |  |  | 
7 | CC1=C(C(=O)Nc2ccc(F)c(Cl)c2)C(c2ccccc2O)NC(=O)N1 (stereo unspecified) | > 100 µM | > 100 µM | > 100 µM | > 100 µM | > 100 µM | > 100 µM |  | > 100 µM | > 100 µM | > 100 µM | > 100 µM | > 100 µM | 70.5 µM | 96.6 µM | > 100 µM | > 100 µM | > 100 µM | 41.4 µM | 58.8 µM | 
8 | COc1cc(/C=C\c2ccncc2)cc(OC)c1OC | > 100 µM | > 100 µM | > 100 µM | > 100 µM | > 100 µM | > 100 µM |  |  |  |  |  |  |  |  |  |  |  |  |  | 
9 | O=C(Nc1ccccc1Cl)c1cccc(NC2=C(Cl)C(=O)N(Cc3ccccc3)C2=O)c1 | > 100 µM |  | > 100 µM | > 100 µM | 58.6 µM | 94.6 µM | 3.39 µM | > 100 µM | 33.4 µM | 99 µM | 51.2 µM |  | 11.6 µM | 26.8 µM | 18.6 µM | 26.7 µM | > 100 µM | 19.8 µM | 18.9 µM | 1.12 µM
10 | COc1ccc(-c2ccc(/C=N/n3c(COc4ccccc4Cl)n[nH]c3=S)o2)c([N+](=O)[O-])c1 | > 100 µM | 69.3 µM | > 100 µM | 52.7 µM | 91.7 µM |  | 76.7 µM | > 100 µM | 40.5 µM | 79.4 µM | 40.2 µM | 26.7 µM | 18.7 µM | 23.7 µM | 32.3 µM |  | 35.4 µM | 41.1 µM | 23.6 µM | 34.8 µM
11 | Cc1cc(C)nc(NS(=O)(=O)c2ccc(NC(=O)c3cccn4c(=O)c5ccccc5nc34)cc2)n1 | > 100 µM | > 100 µM | > 100 µM | > 100 µM | > 100 µM | > 100 µM | > 100 µM |  |  |  |  |  |  |  |  |  |  |  |  | 
12 | CCC[CH2][Sn]([CH2]CCC)([O]C(=O)/C=C/c1ccccc1F)[O]C(=O)/C=C/c1ccccc1F | 2.41 µM | 4.71 µM | 3.07 µM | 3.37 µM | 1.84 µM | 2.56 µM | 2.1 µM | 4.48 µM |  |  | 0.907 µM | 2.12 µM |  | 1.64 µM | 0.526 µM | 1.27 µM | 2.04 µM | 1.58 µM |  | 0.305 µM
13 | O=C(O)[C@@H](NS(=O)(=O)c1ccc2ccccc2c1)c1ccccc1 | > 100 µM |  | > 100 µM | > 100 µM | > 100 µM | > 100 µM |  | > 100 µM |  |  |  |  |  |  |  |  |  |  |  | 
14 | Nc1cc2cccc[n+]2c2cccc(Cl)c12 |  |  |  | 58.7 µM | 35.6 µM | 71.2 µM | 51.2 µM |  |  |  | 15.5 µM |  | 19.4 µM | 20.2 µM | 4.94 µM | 23 µM |  | 56.2 µM |  | 5.58 µM
15 | N.N.N.N.N.O=S(=O)([O-])C(F)(F)F.O=S(=O)([O-])C(F)(F)F.[Os+8] | 25.4 µM | 20 µM | 55.3 µM | > 100 µM |  | 16.2 µM |  | 60.2 µM |  |  | 10.9 µM | 6.34 µM |  | 5.21 µM |  | 4.26 µM | 20.6 µM | 15.4 µM |  | 
16 | COC/N=C(/N)NC#N | 39.2 µM | > 100 µM | > 100 µM | > 100 µM | > 100 µM | > 100 µM | 53.4 µM | > 100 µM |  |  |  |  |  |  |  |  |  |  |  | 
17 | Nc1ccc(C(=O)N/C(=C\c2cccc([N+](=O)[O-])c2)c2nc3ccc(Cl)cc3[nH]2)cc1 | > 100 µM |  | > 100 µM |  | > 100 µM | > 100 µM | > 100 µM | > 100 µM |  |  |  |  |  |  |  |  |  |  |  | 
18 | COc1ccc(Cc2nc3ccccc3s2)cc1OC | 27.7 µM | 93.5 µM | 35.8 µM | 38.3 µM | 29.5 µM | 31.2 µM | 57.1 µM | 43.5 µM |  |  |  |  |  |  |  |  |  |  |  | 
19 | Cc1nc2c(sc(=S)n2-c2ccccc2)c2nc3ccccc3n12 | > 100 µM | > 100 µM | > 100 µM |  | > 100 µM | > 100 µM |  | > 100 µM |  |  |  |  |  |  |  |  |  |  |  | 
20 | CC(=O)[CH-]C(=O)Nc1ccccc1.CC(=O)[CH-]C(=O)Nc1ccccc1.CC[O-].CC[O-].[Ti+4] | > 100 µM | > 100 µM | > 100 µM | > 100 µM | > 100 µM | > 100 µM | > 100 µM | > 100 µM |  |  | > 100 µM | > 100 µM |  | > 100 µM | > 100 µM | > 100 µM | > 100 µM | > 100 µM |  | > 100 µM
